Reference: patent publication US20250228953A1, “INTRACELLULAR TARGETING OF OLIGONUCLEOTIDES” (Entrada Therapeutics, Inc., priority 2021, published 2025)

Experiments:
eGFP-654 transgene = assay: eGFP protein restoration in liver by ELISA; format: in vivo, mouse; settings: 1 week
Experimental: Experiments were performed to determine if GalNAc conjugation to PMO or PMO-EEV could improve liver efficacy of PMO or PMO-EEV in EGFP-654 mice (Sazani et al., Nat Biotechnol. 2002 December; 20(12):1228-33. doi: 10.1038/nbt759.) in a single dosing schedule. Mice (EGFP-654, n=3/group; one female and two male) were injected intravenously (IV) with saline as control and 20 mpk of PMO1 and PMO1-EEV1; 0.2, 2, and 20 mpk (all normalized based on PMO dose) GalNAc-PMO2 and GalNAc-PMO2-EEV1 via both intravenous (TV) and subcutaneous (SC) route of administration. Both the PMO1 and the PMO2 have the same sequence and can be conjugated to EEV at the 3′ end, however, they have different functional handles at 5′ end. […] Thus, PMO1 is used as a control to when exploring the GalNAc liver targeting effects of the PMO2 GalNAc conjugates. An overview of the study design is illustrated in FIG. 16.
eGFP-654 transgenic mouse. The eGFP-654 transgenic mouse line was generated previously for evaluating splice switching oligonucleotides (Sazani et al. 2002 Nat Biotech; JAX stock #027617). The eGFP-654 transgene was cloned under a hybrid promoter with a cytomegalovirus early enhancer element, chicken beta-actin, and rabbit beta-globin, yielding widespread expression throughout the body. […]
eGFP relative protein analysis by […] (ELISA). […] Concentration was measured using a bicinchoninic acid (BCA) assay according to the manufacturer's protocol (Pierce BCA Protein Assay Kit 23227), diluting with the lysis buffer as needed. […] Sample eGFP levels were analyzed using enzyme-linked immunosorbent assay (ELISA) analysis with Abcam GFP ELISA kit (ab171581) according to the manufacturer's protocol. Sample eGFP levels were interpolated using the standard curve with the ELISA kit and reported as mass of eGFP detected (as measured by ELISA) per mass of protein content in the tissue lysate (as measured by BCA assay). the pg/mL of protein detected in each sample divided by the total protein concentration of lysates in ug/ml. […]

[1] = amino acid hydrophobicity scale; cited from earlier work
[2] = as reported by Tien, cited from earlier work; for SASA, Empirical / SASA, Theoretical: et al.

Compound | fold enhancement of efficacy compared to PMO1 (eGFP-654 transgene; liver eGFP, 20 mpk IV) [fold] | fold enhancement of efficacy compared to PMO1-EEV1 (eGFP-654 transgene; liver eGFP, 20 mpk IV) [fold] | Hydrophobicity, Eisenberg and Weiss [1] | Hydrophobicity, Engleman et al. [1] | Hydrophobicity, Janin [1] | Hydrophobicity, Kyrie and Doolittle [1] | SASA, Empirical [2] [Å^2] | SASA, Theoretical [2] [Å^2] | SASA, Miller et al. (1987) [2] [Å^2] | SASA, Rose et al. (1985) [2] [Å^2] | eGFP protein restoration, different EEVs / GalNAc ligands conjugated to GalNAc-PMO2 constructs (eGFP-654 transgene; liver, 20 mpk PMO equivalent IV)
PMO3-GalNAc-EEV1: "EEV1 was reacted with compound PMO1-Lys(BCN) with the following sequence (5′-GCT ATT ACC TTA ACC CAG-3′)"; "GalNAc-N3 was then reacted with PMO1-Lys(BCN)-EEV1" (DNA GCTATTACCTTAACCCAG; all phosphorodiamidate morpholino (PMO); PMO with Lys(BCN) linker bearing GalNAc and EEV1 cell-penetrating peptide) | 14 | 8.9 |  |  |  |  |  |  |  |  | 
C[C@@H](O)[C@H](N)C(=O)O [Thr, Threonine] |  |  | −0.18 | 1.2 | −0.2 | −0.7 | 163.0 | 172.0 | 146.0 | 152.5 | 
Cyclo(FGFRRRRQ)-PEG12-OH (cyclo(FGFRRRRQ); also: PEG12-OH attached, position not clear) [EEV6] |  |  |  |  |  |  |  |  |  |  | highest eGFP protein restoration
CC(C)[C@H](N)C(=O)O [Val, Valine] |  |  | 0.54 | 2.6 | 0.6 | 4.2 | 165.0 | 174.0 | 160.0 | 164.5 | 
